Reference: patent publication US4472582A, “3,5-Disubstituted-4'-(9-acridinylamino)-methane-sulfon-m-anisidide compounds having antitumor properties” (Development Finance Corporation of New Zealand, priority 1979, dated 1984)

Key:
L1210 leukemia = details: in words, literature; cited from earlier work
[1] = Lipophilic-hydrophilic balance by reversed phase chromatography; format: physicochemical; details: linearly related to 1-octanol/H2O partition coefficients
Description: Rm =a measure of the compound's lipophilichydrophilic balance from reversed phase chromatography. Rm is linearly related to partition coefficients obtained in the 1-octanol/H2 O system.

[2] = Basic pKa measured spectrophotometrically; format: physicochemical; details: 20% aqueous dimethylformamide, spectrophotometric; read-out: pK (basic pKa)
L1210 leukemia (ic) = test: Intracerebrally implanted L1210; format: in vivo, mice; details: in words
Description: (§1) In initial screening a standard drug administration schedule has been employed (ip, qd 1-5) and mice (C3 H/DBA2 F1 hybrids) bred in the laboratory, receive a standard tumor inoculum of 10^5 L1210 cells ip on day 0. After range finding experiments, an LD10 dose has then been derived employing doses separated by 0.05 log.dose units, an acceptable soluble drug formulation (B. F. Cain, R. N. Seelye and G. J. Atwell, J. Med. Chem., 17, 922-930 (1974)) and groups of six tumored mice at each dose level. Deaths occuring before day 8 have been taken as resulting from drug toxicity. From the linear regression relating percent probit-mortality and the logarithms of the corresponding doses, an LD10 value has been derived. Profiles of antileukemic activity have been obtained employing doses separated by 0.09 log.dose intervals. Significant percentage increases in life span of leukemic animals, obtained at and below the LD10 dose, have been linearly correlated with the logarithms of the corresponding doses. The increase in life span (ILS) specified by the life extension-log.dose regression line at the measured LD10 provides a representative measure of antileukemic effectiveness at a standard host load in toxicity (W. A. Denny and B. F. Cain, J. Med. Chem., 21, 430-437 (1978)). For congener selection ILS has been employed as a measure of factor (1) above and LD10 for factor (2). Desirable drug pharmacokinetic properties (factor (3)) have been screened for by employing standard ip drug administration and implanting tumor more remotely; either subcutaneously (sc) or intracerabrally (ic) (B. F. Cain and G. J. Atwell Europ J. Cancer, 10, 539 549 (1974), B. F. Cain and G. J. Atwell, J. Med. Chem., 19 1409-1416 (1976)).

[3] = tested on: TA1537 strain of Salmonella typhimurium; test: Mutagenicity assay in TA1537 strain; details: for Mutagenicity D50: Salmonella typhimurium TA1537; for Mutagenicity M50 (percentage mutation frequency at the D50 (×10^4)): Salmonella typhimurium TA1537, at the D50
Description: The quantitative measures of mutagenicity employed in the present studies are those detailed in L. R. Ferguson and W. A. Denny, J. Med. Chem., 22, 251-255 (1979) of early QSAR developed in this area.
D50 and M50=quantitative measures derived from mutagenicity assays in TA1537 strain of Salmonella typhimurium, defined in L. R. Ferguson and W. A. Denny, J. Med. Chem., 22, 251-255 (1979). (The values of M50 are percentage mutation frequencies at the D50 (×10^4).)

L1210 leukemia (sc) = test: Antileukemic screen, L1210 tumour sc, drug ip qd 1-5; format: in vivo, mice (C3H/DBA2 F1 hybrids); parameters: LD10 / D40 (drug dose necessary to provide 40% ILS): unit not given here; details: for ILS (increase in life span at the LD10): Strain F1, Schedule qd 1-5, at LD10, Table II; for LD10: Strain F1, Schedule qd 1-5, drug ip, Table II; for D40 (drug dose necessary to provide 40% ILS): Strain F1, Schedule qd 1-5, Table II
Description: as §1
(§2) ILS and LD10=as defined above.
(§3) D40=the drug dose necessary to provide 40% ILS in standard L1210 assays.

poly.dAT = test: Drug-DNA binding, poly.dAT (AT)
Description: (§4) CT, AT and GC=are relative, inverse measures of compound--DNA binding for calf thymus DNA (CT); poly.dAT (AT) and poly. dGC (GC). (B. C. Baguley and E. M. Falkenhaugh, Nucleic Acids Res., 5, 161-171 (1978), B. F. Cain, B. C. Baguley and W. A. Denny, J. Med. Chem., 21, 658-668 (1978)).

[4] = tested on: Ames bacterial tester strains TA98, TA100, TA1537; format: cell-based
Description: As clinical cancer chemotherapy improves, and patients live symptom free for longer intervals, it is obviously important that the agents employed are not carcinogenic and capable of disease re-induction.

calf thymus DNA = test: Drug-DNA binding, calf thymus DNA (CT)
Description: as §4

poly. dGC = test: Drug-DNA binding, poly.dGC (GC)
Description: as §4

L1210 leukemia (ip) = test: Antileukemic screen, L1210 tumour ip, drug ip qd 1-5; format: in vivo, mice (C3H/DBA2 F1 hybrids); parameters: LD10 / D40 (drug dose necessary to provide 40% ILS): unit not given here; details: for ILS Observed: L1210-ip, qd 1-5, Table III; for ILS (increase in life span at the LD10) / LD10 / D40 (drug dose necessary to provide 40% ILS): Tumour L1210-ip, Table II; for ILS (increase in life span at the LD10): Strain F1, Schedule qd 1-5, at LD10; for LD10: Strain F1, Schedule qd 1-5, drug ip; for D40 (drug dose necessary to provide 40% ILS): Strain F1, Schedule qd 1-5; for Antitumour activity in leukemic animals / Dose potency: in words
Description: as §1, §2, §3

[5] = Water solubility / ease of formulation; format: physicochemical; details: in words
[6] = tested on: experimental tumour systems; details: in words, literature; cited from earlier work

Row | SMILES | Antitumour activity in L1210 leukemia (L1210 leukemia) | Rm (reversed-phase chromatographic lipophilicity) [1] | pKa [2] | Inhibition of intra-cerebrally implanted L1210 (L1210 leukemia (ic)) | Mutagenicity D50 [3] | Mutagenicity M50 (percentage mutation frequency at the D50 (×10^4)) [3] | ILS (increase in life span at the LD10) (L1210 leukemia (sc)) | LD10 (L1210 leukemia (sc)) | AT (relative, inverse measure of compound-DNA binding) (poly.dAT) | Direct mutagenicity [4] | CT (relative, inverse measure of compound-DNA binding) (calf thymus DNA) | GC (relative, inverse measure of compound-DNA binding) (poly. dGC) | ILS Observed (L1210 leukemia (ip)) | ILS (increase in life span at the LD10) (L1210 leukemia (ip)) | LD10 (L1210 leukemia (ip)) | D40 (drug dose necessary to provide 40% ILS) (L1210 leukemia (ip)) | Antitumour activity in leukemic animals (L1210 leukemia (ip)) | Dose potency (L1210 leukemia (ip)) | Ease of formulation [5] | D40 (drug dose necessary to provide 40% ILS) (L1210 leukemia (sc)) | further results
1 | CS(=O)(=O)Nc1ccc(Nc2c3ccccc3nc3ccccc23)cc1 [AMSA, 4'-(9-acridinylamino) methanesulfonanilide] | high antitumour activity | – | – | – | – | – | – | – | – | – | – | – | – | – | – | – | – | – | – | – | –
2 | CNC(=O)c1cccc2c(Nc3ccc(NS(C)(=O)=O)cc3OC)c3ccc(C)cc3nc12 [Compound 1] | – | 0.32 | 6.6 | inhibit intra-cerebrally implanted L1210 | 15.3 | 1.0 % (×10^4) | 30% | 10 | 4.74 | lack significant mutagenic activity | 5.53 | 2.76 | 200% | 200% | 12 | 3 | unusually high antitumour activity in leukemic animals | good dose potency | easily formulable | – | Antitumour activity in leukemic animals (L1210 leukemia (ip); listed as 3-methyl-5-methylcarboxamido): high experimental antitumor activity
3 | COc1cc(NS(C)(=O)=O)ccc1Nc1c2ccc(C)cc2nc2c(C(=O)NCC(N)=O)cccc12 [Compound 2] | – | -0.32 | 6.58 | – | 27.6 | 0 % (×10^4) | 50% | 120 | 6.53 | – | 6.53 | 1.84 | 200% | 200% | 120 | 10 | unusually high antitumour activity in leukemic animals | – | – | 60 | –
4 | COc1cc(NS(C)(=O)=O)ccc1Nc1c2ccc(Cl)cc2nc2c(C(=O)NCC(N)=O)cccc12 [Compound 3] | – | -0.23 | 5.71 | – | 12.4 | 0 % (×10^4) | 65% | 330 | – | – | – | 4.91 | 120% | 120% | 300 | 25 | – | – | – | 175 | –
5 | CNC(=O)c1ccc2c(Nc3ccc(NS(C)(=O)=O)cc3OC)c3cccc(C)c3nc2c1 [Compound 4] | – | -0.17 | 6.64 | inhibit intra-cerebrally implanted L1210 | 43.8 | 0.16 % (×10^4) | 100% | 25 | 3.2 | lack significant mutagenic activity | – | – | 150% | 150% | 20 | 1 | – | good dose potency | easily formulable | 15 | Antitumour activity in leukemic animals (L1210 leukemia (ip); listed as 5-methyl-3-methylcarboxamido): high experimental antitumor activity
6 | COc1cc(NS(C)(=O)=O)ccc1Nc1c2ccccc2nc2ccccc12 [m-AMSA, 4'-(9-acridinylamino)-methanesulfon-m-anisidide] | highly effective in treating L1210 leukemia | – | – | does not | – | – | 45% | 10 | – | – | – | – | – | 111% | 9 | 2.5 | – | – | – | 8.0 | Activity in other experimental tumour systems [6]: has shown promise in a number of other experimental tumour systems
